Laboratory results: US8637511B2, “Aminopyrimidines useful as kinase inhibitors” (Vertex Pharmaceuticals Incorporated, priority 2005, dated 2014)
Like-named read-outs stand apart in the source and are kept apart here.

Legend:
[1] = tested on: Colo205 cells; test: Analysis of cell proliferation and viability; assay type: cell-based; settings: Homo sapiens, read-out: IC50 value
[2] = target: T1, human Itk kinase (Homo sapiens, UniProt Q08881); test: Itk inhibition assay: radioactivity-based assay; assay type: biochemical; settings: Ki(app)
T1 sequence (Q08881 1-620): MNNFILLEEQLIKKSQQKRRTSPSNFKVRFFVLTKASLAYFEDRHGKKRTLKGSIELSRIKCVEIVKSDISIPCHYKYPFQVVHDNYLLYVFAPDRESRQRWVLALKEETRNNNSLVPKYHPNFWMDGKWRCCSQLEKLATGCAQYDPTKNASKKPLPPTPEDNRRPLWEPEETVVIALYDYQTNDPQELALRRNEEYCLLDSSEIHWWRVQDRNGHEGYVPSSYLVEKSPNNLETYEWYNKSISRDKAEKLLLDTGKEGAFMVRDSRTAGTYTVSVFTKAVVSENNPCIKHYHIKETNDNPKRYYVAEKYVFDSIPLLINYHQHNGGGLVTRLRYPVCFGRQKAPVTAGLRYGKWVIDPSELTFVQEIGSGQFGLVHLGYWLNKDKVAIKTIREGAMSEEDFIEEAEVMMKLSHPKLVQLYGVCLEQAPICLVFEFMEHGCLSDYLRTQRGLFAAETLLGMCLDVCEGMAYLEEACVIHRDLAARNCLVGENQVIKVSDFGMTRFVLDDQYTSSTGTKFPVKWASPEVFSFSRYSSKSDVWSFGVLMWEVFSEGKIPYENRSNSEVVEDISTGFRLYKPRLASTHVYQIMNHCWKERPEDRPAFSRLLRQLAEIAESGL
Description: The compounds of the present invention were evaluated as inhibitors of human Itk kinase using a radioactivity-based assay. These compounds can also be evaluated using a spectrophotometric or alphascreen assay.
Assays were carried out in a mixture of 20 mM MOPS (pH 7.0), 10 mM MgCl2, 0.1% BSA and 1 mM DTT. Final substrate concentrations in the assay were 7.5 μM [γ-^33P]ATP (400 μCi ^33P ATP/μmol ATP, Amersham Pharmacia Biotech/Sigma Chemicals) and 3 μM peptide (SAM68 protein Δ332-443). Assays were carried out at 25° C. in the presence of 50 nM Itk. An assay stock buffer solution was prepared containing all of the reagents listed above, with the exception of ATP and the test compound of interest. 50 μL of the stock solution was placed in a 96 well plate followed by addition of 2 μL of DMSO stock containing serial dilutions of the test compound (typically starting from a final concentration of 50 μM with 2-fold serial dilutions) in duplicate (final DMSO concentration 2%). The plate was pre-incubated for 10 minutes at 25° C. and the reaction initiated by addition of 50 μL [γ-^33P]ATP (final concentration 7.5 μM).
The reaction was stopped after 10 minutes by the addition of 100 μL 0.2M phosphoric acid+0.01% TWEEN 20. A multiscreen phosphocellulose filter 96-well plate (Millipore, Cat no. MAPHNOB50) was pretreated with 100 μL 0.2M phosphoric acid+0.01% TWEEN 20 prior to the addition of 170 μL of the stopped assay mixture. The plate was washed with 4×200 μL 0.2M phosphoric acid+0.01% TWEEN 20. After drying, 30 μL Optiphase ‘SuperMix’ liquid scintillation cocktail (Perkin Elmer) was added to the well prior to scintillation counting (1450 Microbeta Liquid Scintillation Counter, Wallac).
Ki(app) data were calculated from non-linear regression analysis of the initial rate data using the Prism software package (GraphPad Prism version 3.0cx for Macintosh, GraphPad Software, San Diego Calif., USA).

[3] = target: T2, JAK3 (Homo sapiens, UniProt P52333); test: biochemical
T2 sequence (P52333 1-1124): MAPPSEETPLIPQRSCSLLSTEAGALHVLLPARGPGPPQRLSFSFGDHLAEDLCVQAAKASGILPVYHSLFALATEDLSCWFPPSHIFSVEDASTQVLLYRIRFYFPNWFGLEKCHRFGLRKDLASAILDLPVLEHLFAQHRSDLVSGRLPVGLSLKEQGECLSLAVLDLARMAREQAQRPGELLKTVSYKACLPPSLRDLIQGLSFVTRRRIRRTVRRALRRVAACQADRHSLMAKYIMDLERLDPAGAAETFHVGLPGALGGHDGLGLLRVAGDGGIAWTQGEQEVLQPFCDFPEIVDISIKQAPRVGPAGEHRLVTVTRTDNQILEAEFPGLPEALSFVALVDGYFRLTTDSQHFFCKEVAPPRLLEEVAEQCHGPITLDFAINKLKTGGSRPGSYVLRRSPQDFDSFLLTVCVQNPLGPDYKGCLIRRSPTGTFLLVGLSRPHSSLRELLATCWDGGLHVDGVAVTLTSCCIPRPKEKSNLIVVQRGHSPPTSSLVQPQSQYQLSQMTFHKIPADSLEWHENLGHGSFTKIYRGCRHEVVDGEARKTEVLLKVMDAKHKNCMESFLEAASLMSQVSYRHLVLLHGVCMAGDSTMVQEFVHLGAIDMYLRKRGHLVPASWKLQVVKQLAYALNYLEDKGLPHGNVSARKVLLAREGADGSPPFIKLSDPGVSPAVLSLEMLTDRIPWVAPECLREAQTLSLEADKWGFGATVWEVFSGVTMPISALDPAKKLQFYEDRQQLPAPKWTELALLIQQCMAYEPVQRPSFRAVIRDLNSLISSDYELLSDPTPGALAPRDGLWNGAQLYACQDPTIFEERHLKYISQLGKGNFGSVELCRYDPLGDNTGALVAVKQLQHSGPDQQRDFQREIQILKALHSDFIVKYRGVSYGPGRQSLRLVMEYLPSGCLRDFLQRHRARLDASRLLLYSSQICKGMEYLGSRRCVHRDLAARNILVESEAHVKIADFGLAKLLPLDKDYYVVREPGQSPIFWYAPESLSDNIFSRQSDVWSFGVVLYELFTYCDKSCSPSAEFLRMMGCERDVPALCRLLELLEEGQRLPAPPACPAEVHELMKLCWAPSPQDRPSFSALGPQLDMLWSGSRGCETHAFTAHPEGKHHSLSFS
Description: Reactions were carried out in a kinase buffer containing 100 mM HEPES (pH 7.4), 1 mM DTT, 10 mM MgCl2, 25 mM NaCl, and 0.01% BSA. Substrate concentrations in the assay were 5 μM ATP (200 uCi/μmole ATP) and 1 μM poly(Glu)4Tyr. Reactions were carried out at 25° C. and 1 nM JAK3.
To each well of a 96 well polycarbonate plate was added 1.5 μl of a candidate JAK3 inhibitor along with 50 μl of kinase buffer containing 2 μM poly(Glu)4Tyr and 10 μM ATP. This was then mixed and 50 μl of kinase buffer containing 2 nM JAK3 enzyme was added to start the reaction. After 20 minutes at room temperature (25 C), the reaction was stopped with 50 μl of 20% trichloroacetic acid (TCA) that also contained 0.4 mM ATP. The entire contents of each well were then transferred to a 96 well glass fiber filter plate using a TomTek Cell Harvester. After washing, 60 μl of scintillation fluid was added and ^33P incorporation detected on a Perkin Elmer TopCount.

[4] = target: Aurora-1 (Aurora B) (Homo sapiens, UniProt Q96GD4); test: Aurora-1 (Aurora B) inhibition assay (radiometric); assay type: biochemical; settings: read-out: Aurora B kinase Ki value
Chain of Aurora-1 (Aurora B) (Q96GD4 whole entry): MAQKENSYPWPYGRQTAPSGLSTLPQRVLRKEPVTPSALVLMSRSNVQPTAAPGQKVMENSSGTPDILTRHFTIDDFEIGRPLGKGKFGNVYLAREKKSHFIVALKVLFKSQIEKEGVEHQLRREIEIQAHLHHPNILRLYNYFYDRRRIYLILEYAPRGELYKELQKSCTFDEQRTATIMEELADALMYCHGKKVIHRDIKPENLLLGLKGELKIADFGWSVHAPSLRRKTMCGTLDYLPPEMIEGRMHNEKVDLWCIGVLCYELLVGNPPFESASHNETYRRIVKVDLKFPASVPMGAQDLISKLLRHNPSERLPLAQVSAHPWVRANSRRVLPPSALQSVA
Method in brief: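 Ki values come from non-linear regression of background-corrected initial-rate data. The enzyme was preincubated 10 min at 25° C with compound, then reacted 3 h with 800 μM (final) [γ-^33P]-ATP in HEPES pH 7.5/MgCl2/BSA/glycerol buffer. The reaction was stopped with phosphoric acid and substrate-bound ^33P counted on phosphocellulose.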

[5] = target: T3, Aurora-2 (Aurora A) (Homo sapiens, UniProt O14965); test: Aurora-2 (Aurora A) inhibition assay, coupled enzyme; assay type: biochemical; settings: read-out: Aurora A kinase Ki value
T3 sequence (O14965 1-403): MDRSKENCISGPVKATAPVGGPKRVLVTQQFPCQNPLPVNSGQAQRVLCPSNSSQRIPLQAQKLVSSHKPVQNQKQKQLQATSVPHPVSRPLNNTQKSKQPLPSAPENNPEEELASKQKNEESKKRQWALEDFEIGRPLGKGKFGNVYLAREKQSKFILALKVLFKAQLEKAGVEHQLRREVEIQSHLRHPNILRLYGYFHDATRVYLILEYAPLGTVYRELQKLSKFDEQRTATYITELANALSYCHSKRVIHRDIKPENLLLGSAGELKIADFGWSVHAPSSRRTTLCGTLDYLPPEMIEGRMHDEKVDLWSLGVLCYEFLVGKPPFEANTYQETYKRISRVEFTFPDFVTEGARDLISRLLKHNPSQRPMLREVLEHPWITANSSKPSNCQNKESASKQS
Method in brief: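 These rates came from NADH consumption coupled through pyruvate kinase and lactate dehydrogenase (100 mM Hepes pH 7.5, 10 mM MgCl2, 300 μM NADH). Aurora-2 was present at 40 nM, and the reaction ran at 30 °C after a 10 min preincubation.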

[6] = COLO 205, Colo205 cells, incubated for 96 hours

Row | Structure (SMILES) | IC50 [1, 6] [nM] | Ki [2] [nM] | IC50 ([1]; COLO 205, 96 h) [nM] | also measured
1 | Cc1cc(Nc2cc(N3CCC3)nc(Sc3ccc(NC(=O)c4ccccc4C(F)(F)F)cc3)n2)[nH]n1 [Compound 56] | ≤ 50 | 100 to 1000 | – | IC50 ([1]; COLO 205, Colo205 cells, incubated for 72 hours): 30 to 200 nM
2 | CCc1cccc(C(=O)Nc2ccc(Sc3nc(Nc4cc(C)[nH]n4)cc(N4CCC4)n3)cc2)c1Cl [Compound 164] | ≤ 50 | 100 to 1000 | – | Ki [3]: ≤ 10 nM
3 | Cc1cc(Nc2cc(N3CCC3)nc(Sc3ccc(NC(=O)c4c(Cl)cccc4Cl)cc3)n2)n[nH]1 [Compound 46] | – | ≤ 100 | 50 to 1000 | –
4 | Cc1cc(Nc2cc(N3CCC3)nc(Sc3ccc(NC(=O)c4ccccc4F)cc3)n2)n[nH]1 [Compound 9] | 50 to 1000 | 100 to 1000 | – | Ki [4]: ≤ 10 nM
5 | Cc1cc(Nc2cc(N3CCC3)nc(Sc3ccc(NC(=O)c4c(F)cccc4F)cc3)n2)n[nH]1 [Compound 7] | ≤ 50 | ≤ 100 | – | –
6 | COc1ccccc1C(=O)Nc1ccc(Sc2nc(Nc3cc(C)[nH]n3)cc(N3CCC3)n2)cc1 [Compound 32] | – | 100 to 1000 | 50 to 1000 | –
7 | Cc1cc(Nc2cc(N3CCC3)nc(Sc3ccc(NC(=O)c4cccc(F)c4F)cc3)n2)n[nH]1 [Compound 33] | – | 100 to 1000 | 50 to 1000 | Ki [5]: 1 to 5 nM
8 | Cc1cc(Nc2cc(N3CCC3)nc(Sc3ccc(NC(=O)c4cc(Cl)ccc4Cl)cc3)n2)n[nH]1 [Compound 163] | 50 to 1000 | 100 to 1000 | – | –
9 | O=C(Nc1ccc(Sc2nc(Nc3cc(CO)[nH]n3)cc(N3CCC3)n2)cc1)c1ccccc1Cl [Compound 75] | – | 1000 to 2000 | – | Ki [5]: 5 to 200 nM; Ki [4]: 50 to 2000 nM
10 | Cc1cc(Nc2cc(N3CCC3)nc(Sc3ccc(NC(=O)c4cccc(Cl)c4)cc3)n2)n[nH]1 [Compound 53] | 50 to 1000 | 100 to 1000 | – | –
11 | Cc1cc(Nc2cc(N3CCC3)nc(Sc3ccc(NC(=O)c4ccccc4C)cc3)n2)n[nH]1 [Compound 31] | – | 100 to 1000 | 50 to 1000 | –
12 | Cc1cccc(C(=O)Nc2ccc(Sc3nc(Nc4cc(C)[nH]n4)cc(N4CCC4)n3)cc2)c1 [Compound 29] | – | 100 to 1000 | 50 to 1000 | –
13 | O=C(Nc1ccc(Sc2nc(Nc3cc(C4CC4)[nH]n3)cc(N3CCC3)n2)cc1)c1ccccc1Cl [Compound 65] | 50 to 1000 | ≤ 100 | – | Ki ([3]; read-out: JAK3 Ki value): ≤ 10 nM
14 | Cc1cc(Nc2cc(N3CCC3)nc(Sc3ccc(NC(=O)c4ccccc4OC(F)(F)F)cc3)n2)n[nH]1 [Compound 34] | – | 100 to 1000 | 50 to 1000 | –
15 | Cc1cc(Nc2cc(N3CCC3)nc(Sc3ccc(NC(=O)c4cccc(C)c4Cl)cc3)n2)n[nH]1 [Compound 161] | 50 to 1000 | 100 to 1000 | – | Ki ([3]; read-out: JAK3 Ki value): ≤ 10 nM
